The source of these data is patent US20030237104A1 (priority 2002, published 2003).

One data set deals with CB6F1-HRAS2 mice. To be noted: in vivo.
Another data set has as its system non-Tg mice (CB6F1). To be noted: mouse, in vivo.
The next data set concerns Salmonella. To be noted: cited from earlier work.
Another data set relates to CB6F1-Tg-rasH2 mice. To be noted: mouse, in vivo, ip, 75 mg/kg.
The test system of another data set is rasH2 mice. To be noted: mouse, in vivo, ip; cited from earlier work.
Where [1] appears, read: CB6F1-HRAS2 and non-Tg CB6F1, mouse.
[2] abbreviates: CB6F1-HRAS2, mouse, sc, 15 mg/kg.
Where [3] appears, read: CB6F1-HRAS2, mouse, ip, 60 mg/kg.

Like-named read-outs stand apart in the source and are kept apart here.

With `[O-][n+]1ccc(NO)c2ccccc21` [4HAQO, 4-Hydroxyaminoquinoline-1-oxide], the “tumors in the exocrine portion of the pancreas” value in the data set on CB6F1-HRAS2 mice (setting [1]) is reported as “Neither the 4HAQO-treated Tg nor the non-Tg mice developed tumors”. In addition, in the data set on CB6F1-HRAS2 mice (mouse), the “Malignant Tumors Tg” value is “++”; the “Rapid tumor response in Tg mice” value is listed as “+”; the “Tumor incidence and/or multiplicity” value was “Tg > non-Tg”; the “forestomach and skin papillomas” value is given as “induced”. In the data set with CB6F1-HRAS2 mice (mouse), the “other tumors (e.g., leukemias and thymomas)” value is “observed only in the Tg mice”. In addition, in the data set with non-Tg mice (CB6F1), the “Malignant Tumors Non-Tg” value is on record as “+”; the “forestomach and skin papillomas” value is “hardly observed”. Further, the “Genotoxicity (Salmonella)” value in the data set with Salmonella is “+”.

For `O=[N+]([O-])c1cc[n+]([O-])c2ccccc12` [4NQO, 4-Nitroquinoline-1-oxide], in the data set with CB6F1-HRAS2 mice (setting [2]), the lung adenocarcinomas entry is listed as “observed only in 4NQO-treated CB6F1-HRAS2 mice” and the “squamous cell carcinomas of skin” value was “observed only in 4NQO-treated CB6F1-HRAS2 mice”. For the same compound, the “mice bearing skin papillomas” value in the data set on CB6F1-HRAS2 mice (both, CB6F1-HRAS2, mouse, sc, 15 mg/kg) was “Approximately 90%”. In the data set with CB6F1-HRAS2 mice (mouse), the “Malignant Tumors Tg” value was “+”, the “Rapid tumor response in Tg mice” value was “+” and the “Tumor incidence and/or multiplicity” value was “Tg > non-Tg”. In addition, the “incidence of lung adenoma” value in the data set with CB6F1-HRAS2 mice (mouse, sc, 15 mg/kg) is recorded as “higher than that in corresponding non-Tg mice”. Moreover, the “Malignant Tumors Non-Tg” value with non-Tg mice (CB6F1) is recorded as “−”. Also, the skin tumors result in the data set with non-Tg mice (CB6F1) (sc, 15 mg/kg) is given as “No skin tumors were observed”.

Regarding `O=P1(N(CCCl)CCCl)NCCCO1` (centres unmarked) [Cyclophosphamide], in the data set on CB6F1-HRAS2 mice (CB6F1-HRAS2, mouse), the “adenocarcinomas (lung)” value is reported as “observed only in one cyclophosphamide-treated male CB6F1-HRAS2 mouse”. For the same compound, in the data set with CB6F1-HRAS2 mice (mouse), the “Malignant Tumors Tg” value is reported as “+”; the “Tumor incidence and/or multiplicity” value was “Tg ÷ non-Tg”; the “incidence and multiplicity of lung adenoma” value (shortened to “incidence and multiplicity”) is listed as “not significantly higher”; the “incidence of lung adenoma” value is “not significantly different from that in corresponding non-Tg mice”. In addition, in the data set on CB6F1-HRAS2 mice (mouse), the lung tumors entry is recorded as “induced lung tumors” and the “tumors in other organs (bladder, mammary gland, lymphatic systems)” value is recorded as “No tumor was observed”. In the data set on non-Tg mice (CB6F1), the “Malignant Tumors Non-Tg” value is listed as “−”. The “Genotoxicity (Salmonella)” value with Salmonella is “+”.

On to `S=C1NCCN1` [Ethylene thiourea], for which, in the data set with CB6F1-HRAS2 mice (female, CB6F1-HRAS2, mouse), the “incidence of thyroid adenocarcinoma” value is 9% and the thyroid adenomas incidence is reported as 26%. Besides, in the data set on CB6F1-HRAS2 mice (mouse), the “Malignant Tumors Tg” value is given as “+”, the “Tumor incidence and/or multiplicity” value is recorded as “Tg ÷ non-Tg” and the thyroid tumors result is “did not induce”. In the data set with non-Tg mice (CB6F1) (female, CB6F1 (non-Tg)), the “incidence of thyroid adenocarcinoma” value was found to be 4% and the thyroid adenomas incidence amounted to 20%. The “Malignant Tumors Non-Tg” value with non-Tg mice (CB6F1) is “+”. In the data set with Salmonella, the “Genotoxicity (Salmonella)” value is “−” and the “Salmonella mutagenesis assay result” value is “negative”.

For `C[N+]([O-])=NCO` [MAM, Methylazoxymethanol], in the data set on CB6F1-HRAS2 mice (mouse), the “Malignant Tumors Tg” value is reported as “+”; the “Tumor incidence and/or multiplicity” value was “Tg > non-Tg^c”; the “incidence and multiplicity” value is listed as “not significantly higher”. In the data set with CB6F1-HRAS2 mice (mouse, sc, 20 mg/kg), the lung adenoma incidence result is on record as “similar”. In addition, the “Malignant Tumors Non-Tg” value with non-Tg mice (CB6F1) is “−”. Also, the “Genotoxicity (Salmonella)” value with Salmonella was “+”.

For `CN(N=O)C(N)=O` [MNU, N-Methyl-N-nitrosourea], the “forestomach squamous cell carcinoma” value in the data set on CB6F1-HRAS2 mice (CB6F1-HRAS2, mouse) is given as “seen only in MNU-treated CB6F1-HRAS2 mice”. Moreover, in the data set with CB6F1-HRAS2 mice (mouse), the “Malignant Tumors Tg” value is recorded as “+”, the “Rapid tumor response in Tg mice” value is recorded as “+”, the “Tumor incidence and/or multiplicity” value is given as “Tg > non-Tg” and the forestomach papillomas entry is “high incidence”. In the data set with CB6F1-HRAS2 mice (mouse), the “incidence and multiplicity” value was “not significantly higher”; the “incidence of skin papilloma” value is reported as “significantly high incidence”. Also, in the data set on CB6F1-HRAS2 mice (mouse, 75 mg/kg), the incidence of lymphoma result is given as “higher”. Further, in the data set on CB6F1-Tg-rasH2 mice, the “incidences of forestomach tumor and malignant lymphoma among institutions” value was “High and consistent incidences”; the “incidences of tumor (squamous cell tumor in forestomach, skin, vagina; Harderian gland carcinoma; lung adenomas; malignant lymphoma)” value is given as “increased”. Besides, in the data set on non-Tg mice (CB6F1), the “Malignant Tumors Non-Tg” value is reported as “−”; the forestomach papillomas result is listed as “no papillomas”; the “skin papillomas and hyperplasias” value was “did not induce”. Moreover, the “Genotoxicity (Salmonella)” value in the data set on Salmonella is reported as “+”. For the same compound, the “forestomach and skin papillomas” value in the data set on rasH2 mice was “higher incidence”.

Regarding `C=COC(N)=O` [Vinyl carbamate], in the data set on CB6F1-HRAS2 mice (setting [3]), the lung adenocarcinomas incidence is 50%, the lung adenomas incidence was 100% and the “mice bearing spleen hemangiosarcomas” value is listed as “Approximately 90%”. For the same compound, the liver tumors entry in the data set on CB6F1-HRAS2 mice (setting [1]) is listed as “neither CB6F1-HRAS2 mice nor control non-Tg mice treated with these compounds developed liver tumors”. In addition, in the data set with CB6F1-HRAS2 mice (mouse), the “Malignant Tumors Tg” value was “++”, the “Rapid tumor response in Tg mice” value was “+” and the “Tumor incidence and/or multiplicity” value was “Tg > non-Tg”. Further, the lung adenomas incidence in the data set on non-Tg mice (CB6F1) (CB6F1 (non-Tg), ip, 60 mg/kg) was more than 90%. Also, the “Malignant Tumors Non-Tg” value in the data set on non-Tg mice (CB6F1) is reported as “+”. In the data set with non-Tg mice (CB6F1) (ip, 60 mg/kg), the “incidence of lung adenocarcinoma” value is recorded as “much lower”, the spleen hemangiosarcomas result is “none developed” and the “tumor multiplication (lung adenomas)” value is “lower”. Besides, the “Genotoxicity (Salmonella)” value with Salmonella is “+”.
